Like-named read-outs stand apart in the source and are kept apart here.
What was measured:
[1] = system: AsPC-1 cells containing homozygous KRAS-G12D activating mutation; assay: Cellular phospho-ERK assay (Examples 1a-106); format: cell-based; settings: AsPC-1 cells, 2 hours, ratio of p-Erk vs total Erk, read-out: IC50 (nM) pERK (Cell)
Description: 5% CO? overnight. […] Assay plates were read on a EnVision Multimode Plate Reader (PerkinElmer) and the ratio of p-Erk vs total Erk in each well was used as the final readout.

[2] = biological target: KRAS protein containing G12D mutation (Homo sapiens (Human), UniProt P01116, G12D); assay: SOS-catalyzed nucleotide exchange assay (GNE), TR-FRET; format: biochemical; settings: biotinylated KRAS G12D, SOS and GTP, 60-minute incubation
Description: Compounds are added to this complex and then after a 60-minute incubation time the mixture is treated with SOS and unlabeled GTP. Small molecule inhibitors stabilize the Bodipy-GDP complex whereas the untreated protein rapidly exchanges Bodipy-GDP for unlabeled GTP resulting in reduced TR-FRET signal.
This solution is referred to as biotinylated KRAS G12D stock solution.

KRAS protein containing G12D mutation, sequence (P01116 other isoform, or with tags, fused parts or gaps G12D (already in the parent)): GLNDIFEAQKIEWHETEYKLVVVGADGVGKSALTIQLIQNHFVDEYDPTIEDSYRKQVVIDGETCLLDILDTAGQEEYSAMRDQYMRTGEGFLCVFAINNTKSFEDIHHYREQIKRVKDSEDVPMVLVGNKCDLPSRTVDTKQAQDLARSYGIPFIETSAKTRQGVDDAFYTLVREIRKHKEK

Row | Structure (SMILES) | IC50 [1] [nM] | IC50 [2] [nM] | IC50 ([1]; Homo sapiens, ASPC1, 2 h) [nM]
1 | CN(C)CC1(COc2nc(N3C[C@@]4(C)CC[C@H]3CN4)c3cc(Cl)c(-c4cc(O)cc5ccccc45)c(F)c3n2)CC1 (single isomer, unassigned) [Example 38b] | 22200 | 3400 | –
2 | Cc1cc2[nH]ncc2c(-c2c(F)cc3c(N4CC5CCC(C4)N5)nc(OCC4(CN(C)C)CC4(F)F)nc3c2F)c1C (single isomer, unassigned) [Example 66a, 1-(1-(((4-(3,8-diazabicyclo [3.2.1]octan-3-yl)-7-(5,6-dimethyl-1H-indazol-4-yl)-6,8-difluoroquinazolin-2-yl)oxy)methyl)-2,2-difluorocyclopropyl)-N,N-dimethylmethanamine] | – | 54 | 3460
3 | Cc1cc2[nH]ncc2c(-c2c(F)cc3c(N4CC5CCC(C4)N5)nc(OCC4(CN(C)C)CC4(F)F)nc3c2F)c1C (single isomer, unassigned) [Example 66b, 1-(1-(((4-(3,8-diazabicyclo [3.2.1]octan-3-yl)-7-(5,6-dimethyl-1H-indazol-4-yl)-6,8-difluoroquinazolin-2-yl)oxy)methyl)-2,2-difluorocyclopropyl)-N,N-dimethylmethanamine] | 2120 | 31.1 | –
4 | Cc1c(Cl)cc2[nH]ccc2c1-c1c(F)cc2c(N3CC4CCC(C3)N4)nc(OCC3(CN(C)C)CC3)nc2c1F [Ex 73, 1-(1-(((4-(3,8-diazabicyclo[3.2.1]octan-3-yl)-7-(6-chloro-5-methyl-1H-indol-4-yl)-6,8-difluoroquinazolin-2-yl)oxy)methyl)cyclopropyl)-N,N-dimethylmethanamine] | – | 1250 | 14000
5 | Cc1c(Cl)cc2[nH]nc(C)c2c1-c1c(F)cc2c(N3CC4CCC(C3)N4)nc(OCC3(CN4CCOCC4)CC3)nc2c1F [Ex 74, 4-((1-(((4-(3,8-diazabicyclo[3.2.1]octan-3-yl)-7-(6-chloro-3,5-dimethyl-1H-indazol-4-yl)-6,8-difluoroquinazolin-2-yl)oxy)methyl)cyclopropyl)methyl) morpholine] | – | 69.1 | 2000
6 | Cc1c(Cl)cc2[nH]nc(C)c2c1-c1c(F)cc2c(N3C[C@H]4CC[C@@](C)(C3)N4)nc(OC[C@]3(CN(C)C)CC3(F)F)nc2c1F [Ex 75, 1-((1R)-1-(((7-(6-chloro-3,5-dimethyl-1H-indazol-4-yl)-6,8-difluoro-4-((1S,5R)-1-methyl-3,8-diazabicyclo[3.2.1]octan-3-yl)quinazolin-2-yl)oxy)methyl)-2,2-difluorocyclopropyl)-N,N-dimethylmethanamine] | – | 1440 | 7160
7 | Cc1cc2[nH]nc(C)c2c(-c2c(F)cc3c(N4C[C@H]5CC[C@@](C)(C4)N5)nc(OC[C@@H]4C[C@@H](F)CN4C)nc3c2F)c1Cl [Ex 77, 7-(5-chloro-3,6-dimethyl-1H-indazol-4-yl)-6,8-difluoro-2-(((2S,4R)-4-fluoro-1-methylpyrrolidin-2-yl)methoxy)-4-((1S,5R)-1-methyl-3,8-diazabicyclo[3.2.1]octan-3-yl)quinazoline] | – | 792 | 5350
8 | Cc1c(Cl)cc2[nH]nc(Cl)c2c1-c1c(F)cc2c(N3C[C@H]4CC[C@@](C)(C3)N4)nc(OCC3(CN4CC[C@@H](F)C4)CC3)nc2c1F [Ex 78, 7-(3,6-dichloro-5-methyl-1H-indazol-4-yl)-6,8-difluoro-2-((1-(((R)-3-fluoropyrrolidin-1-yl)methyl)cyclopropyl)methoxy)-4-((1S,5R)-1-methyl-3,8-diazabicyclo[3.2.1]octan-3-yl)quinazoline] | – | 1630 | 6370
9 | CN(C)C[C@@]1(COc2nc(N3C[C@]4(C)CC[C@H]3CN4)c3cc(F)c(-c4cc(O)cc5ccccc45)c(F)c3n2)CC1(F)F [Ex 83, 4-(2-(((R)-1-((dimethylamino)methyl)-2,2-difluorocyclopropyl)methoxy)-6,8-difluoro-4-((1S,4S)-4-methyl-2,5-diazabicyclo [2.2.2]octan-2-yl)quinazolin-7-yl) naphthalen-2-ol] | – | 2.72 | 640
10 | Cc1cc(N)nc(-c2c(F)cc3c(N4CC5CCC(C4)N5)nc(OCC4(CN5CCOCC5)CC4)nc3c2F)c1Cl [Ex 88, 6-(4-((1R,5S)-3,8-diazabicyclo[3.2.1]octan-3-yl)-6,8-difluoro-2-((1-(morpholinomethyl)cyclopropy)methoxy)quinazolin-7-yl)-5-chloro-4-methylpyridin-2-amine] | – | 1350 | 13200
11 | Oc1cc(-c2c(Cl)cc3c(N4CC5NC(C4)C(O)C5O)nc(OCC4(CN5CCOCC5)CC4)nc3c2F)c2ccccc2c1 (stereo not shown) [Ex. 1a, 3-(6-chloro-8-fluoro-7-(3-hydroxynaphthalen-1-yl)-2-((1-(morpholinomethyl)cyclopropyl)methoxy)quinazolin-4-yl)-3,8-diazabicyclo[3.2.1]octane-6,7-diol] | – | 742 | 14600
12 | Oc1cc(-c2c(F)cc3c(N4CC5NC(C4)C(O)C5O)nc(OCC4(CN5CCOCC5)CC4)nc3c2F)c2ccccc2c1 (stereo not shown) [Ex. 2, 3-(6,8-difluoro-7-(3-hydroxynaphthalen-1-yl)-2-((1-(morpholinomethyl)cyclopropyl)methoxy)quinazolin-4-yl)-3,8-diazabicyclo[3.2.1]octane-6,7-diol] | – | 660 | 33200
13 | OCC1(COc2nc(N3CC4CCC(C3)N4)c3cc(F)c(-c4cc(O)cc5ccccc45)c(F)c3n2)CNC1 [Ex. 4, 4-(4-(3.8-diazabicyclo[3.2.1]octan-3-yl)-6,8-difluoro-2-((3-(hydroxymethyl)azetidin-3-yl)methoxy)quinazolin-7-yl)naphthalen-2-ol] | 50800 | 169 | –
14 | C=C[C@H]1[C@@H]2CC[C@@H](CN2)N1c1nc(OCC2(CN(C)C)CC2)nc2c(F)c(-c3cc(O)cc4ccccc34)c(F)cc12 [Ex. 6a, 4-(2-((1-((dimethylamino)methyl)cyclopropyl)methoxy)-6,8-difluoro-4-((1S,3S,4S)-3-vinyl-2,5-diazabicyclo[2.2.2]octan-2-yl)quinazolin-7-yl)naphthalen-2-ol] | – | 159 | 13300
15 | Cc1cc2[nH]ncc2c(C2Cc3nc(OCC4(CN5CC[C@@H](F)C5)CC4)nc(N4C[C@H]5CC[C@@](C)(C4)N5)c3CO2)c1C(F)(F)F (stereo partly drawn) [Ex. 97, 2-((1-(((R)-3-fluoropyrrolidin-1-yl)methyl)cyclopropyl)methoxy)-7-(6-methyl-5-(trifluoromethyl)-1H-indazol-4-yl)-4-((1S,5R)-1-methyl-3,8-diazabicyclo[3.2.1]octan-3-yl)-7,8-dihydro-5H-pyrano[4,3-d]pyrimidine] | – | 3950 | 24300
16 | Cc1cc2[nH]ncc2c(C2Cc3nc(OCC4(CN5CC[C@@H](F)C5)CC4)nc(N4C[C@H]5CC[C@@](C)(C4)N5)c3C(=O)N2)c1C(F)(F)F (stereo partly drawn) [Ex. 98b, 2-((1-(((R)-3-fluoropyrrolidin-1-yl)methyl)cyclopropyl)methoxy)-7-(6-methyl-5-(trifluoromethyl)-1H-indazol-4-yl)-4-((1S,5R)-1-methyl-3,8-diazabicyclo[3.2.1]octan-3-yl)-7,8-dihydropyrido[4,3-d]pyrimidin-5(6H)-one] | – | 11100 | 50800
17 | C=C[C@@H]1[C@@H]2CC[C@@H](CN2)N1c1nc(OCC2(CN(C)C)CC2)nc2c(F)c(-c3cc(O)cc4ccccc34)c(F)cc12 [Example 6b, 4-(2-((1-((dimethylamino)methyl)cyclopropyl)methoxy)-6,8-difluoro-4-((1S,3R,4S)-3-vinyl-2,5-diazabicyclo[2.2.2]octan-2-yl)quinazolin-7-yl)naphthalen-2-ol] | – | 426 | 5500
